Results published in patent publication US4083951A, “Pharmaceutical composition” (Beecham Group Limited, priority 1976, dated 1978).

What was measured:
[1] = system: gastric erosions; assay: gastric irritancy in starved rats, 1 hour contact time; format: in vivo, rat; conditions: rats fasted 18 hr
Procedure: When tested in starved rats (18 hr. fasted) with a 1 hour contact time the following results were obtained:
*Mixture made from dry compounds
**Constituents dosed as solutions

[2] = system: phenylquinone induced writhing; assay: phenylquinone induced writhing in the mouse (analgesic effects); format: in vivo; conditions: dose in terms of acetyl salicylate content, mixture at 2:1 ratio of equivalents, read-out: ED50 (analgesic effect)
Procedure: Sodium acetyl salicylate and mixtures of sodium acetyl salicylate and ferrous sulphate (2:1 ratio of equivalents) were tested against phenylquinone induced writhing in the mouse. Dose responses were plotted in terms of acetyl salicylate content and the following ED50 values obtained: […]

CC(=O)Oc1ccccc1C(=O)O [Calcium acetyl salicylate]
% incidence gastric erosions ([1]; dose 100 mg/kg): 25%

CC(=O)Oc1ccccc1C(=O)O [Sodium acetyl salicylate]
ED50 [2]: 56 mg/kg
% incidence gastric erosions ([1]; dose 160 mg/kg): 88%
% incidence gastric erosions ([1]; dose 338 mg/kg): 75%
